Earlier results in paper PMC9217999 (Targeted Oncology, 2022).

Legend:
Settings in all cases: cited from earlier work
[1] = test system: NF1-associated PN
[2] = test system: recurrent/refractory LGG
[3] = test system: NF1 and inoperable PN

Row | SMILES | Responses ongoing ([1]; 10/12 responses) [%] | Patients with PR ([1]; 12/26 patients, preliminary data) [%] | PR (bidimensional measurements on T2/FLAIR) ([2]; 5/25, four with BRAF aberrations) [%] | 2-year PFS [2] [%] | Confirmed PR rate [3] [%] | PR rate [3] [%] | Stable disease [3] [%]
1 | CC(=O)Nc1cccc(-n2c(=O)n(C3CC3)c(=O)c3c(Nc4ccc(I)cc4F)n(C)c(=O)c(C)c32)c1 [trametinib] | 83 | 46 |  |  |  |  | 
2 | Cn1cnc2c(F)c(Nc3ccc(Br)cc3Cl)c(C(=O)NOCCO)cc21 [selumetinib] |  |  | 20 | 69 | 68 | 74 | 12
